These are literature values, as cited in US20060020045A1, “Methods and compositions for treating inflammatory disorders of the gastrointestinal tract” (priority 2004, published 2006).

Structures are written as SMILES.

In the data set the test system is dimethylhydrazine-induced colon carcinogenesis. To be noted: effect only when present during carcinogen administration, not if given 17 weeks following the carcinogen.

As to `CC1=C(CC(=O)O)c2cc(F)ccc2/C1=C\c1ccc([S+](C)[O-])cc1` (stereo not shown) [sulindac], the tumor incidence entry was “reduce tumor incidence only when present during carcinogen administration”.
